Experimental data published in PubChem BioAssay (NCI).
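How tested: cells in 96-well plates exposed to compound for 48 hours at five concentrations. At the GI50, growth is halved. TGI denotes the concentration required for complete inhibition of growth.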

Tests used:
Assay in all cases: NCI anticancer screen, dose series, 48 h
OVCAR-4 ovarian = test system: OVCAR-4 ovarian
HCT-116 colon = test system: HCT-116 colon
NCI-H226 lung = test system: NCI-H226 lung
HCC-2998 colon = test system: HCC-2998 colon
OVCAR-3 ovarian = test system: OVCAR-3 ovarian
UO-31 renal = test system: UO-31 renal
HT29 colon = test system: HT29 colon
SR leukemia = test system: SR leukemia
RXF 393 renal = test system: RXF 393 renal
K-562 leukemia = test system: K-562 leukemia
SN12C renal = test system: SN12C renal
MDA-MB-231 breast = test system: MDA-MB-231 breast
HS 578T breast = test system: HS 578T breast
NCI-H522 lung = test system: NCI-H522 lung
SK-OV-3 ovarian = test system: SK-OV-3 ovarian
SNB-75 CNS = test system: SNB-75 CNS
CCRF-CEM leukemia = test system: CCRF-CEM leukemia
UACC-257 melanoma = test system: UACC-257 melanoma
EKVX NSCLC = test system: EKVX NSCLC
IGROV1 ovarian = test system: IGROV1 ovarian
RPMI-8226 leukemia = test system: RPMI-8226 leukemia
MALME-3M melanoma = test system: MALME-3M melanoma
HCT-15 colon = test system: HCT-15 colon
786-0 renal = test system: 786-0 renal
NCI-H23 lung = test system: NCI-H23 lung
MDA-MB-435 = test system: MDA-MB-435
SK-MEL-28 melanoma = test system: SK-MEL-28 melanoma
MOLT-4 leukemia = test system: MOLT-4 leukemia
KM12 colon = test system: KM12 colon

SMILES: CC(=O)O[C@@H]1C[C@]2(C(C)C)O[C@@]1(C)[C@@H]1CCC(C)=C1[C@@H]2OC(=O)/C=C/c1ccccc1
- TGI (OVCAR-4 ovarian): > 100 µM
- GI50 (HCT-116 colon): 16.4 µM
- TGI (HCT-116 colon): > 100 µM
- GI50 (NCI-H226 lung): 29.1 µM
- TGI (NCI-H226 lung): > 100 µM
- GI50 (HCC-2998 colon): 68.1 µM
- TGI (HCC-2998 colon): > 100 µM
- GI50 (OVCAR-3 ovarian): 22.5 µM
- TGI (OVCAR-3 ovarian): > 100 µM
- GI50 (UO-31 renal): 20 µM
- TGI (UO-31 renal): > 100 µM
- GI50 (HT29 colon): 30.6 µM
- TGI (HT29 colon): > 100 µM
- GI50 (SR leukemia): 31.8 µM
- TGI (SR leukemia): > 100 µM
- GI50 (RXF 393 renal): 8.83 µM
- TGI (RXF 393 renal): 65.9 µM
- GI50 (K-562 leukemia): 33.7 µM
- TGI (K-562 leukemia): > 100 µM
- GI50 (SN12C renal): 10.4 µM
- TGI (SN12C renal): > 100 µM
- GI50 (MDA-MB-231 breast): 49.3 µM
- TGI (MDA-MB-231 breast): > 100 µM
- GI50 (HS 578T breast): 4.79 µM
- TGI (HS 578T breast): > 100 µM
- GI50 (NCI-H522 lung): 20.7 µM
- TGI (NCI-H522 lung): > 100 µM
- GI50 (SK-OV-3 ovarian): 71.3 µM
- TGI (SK-OV-3 ovarian): > 100 µM
- GI50 (SNB-75 CNS): 27.9 µM
- TGI (SNB-75 CNS): > 100 µM
- GI50 (CCRF-CEM leukemia): 31.3 µM
- TGI (CCRF-CEM leukemia): > 100 µM
- GI50 (UACC-257 melanoma): 27.8 µM
- TGI (UACC-257 melanoma): > 100 µM
- GI50 (EKVX NSCLC): 20 µM
- TGI (EKVX NSCLC): > 100 µM
- GI50 (IGROV1 ovarian): > 100 µM
- TGI (IGROV1 ovarian): > 100 µM
- GI50 (RPMI-8226 leukemia): 9.63 µM
- TGI (RPMI-8226 leukemia): 57.4 µM
- GI50 (MALME-3M melanoma): 39.2 µM
- TGI (MALME-3M melanoma): > 100 µM
- GI50 (HCT-15 colon): 32.7 µM
- TGI (HCT-15 colon): > 100 µM
- GI50 (786-0 renal): 84.3 µM
- TGI (786-0 renal): > 100 µM
- GI50 (NCI-H23 lung): 35.3 µM
- TGI (NCI-H23 lung): > 100 µM
- GI50 (MDA-MB-435): 39.1 µM
- TGI (MDA-MB-435): > 100 µM
- GI50 (SK-MEL-28 melanoma): 69.9 µM
- TGI (SK-MEL-28 melanoma): > 100 µM
- GI50 (MOLT-4 leukemia): 26.9 µM
- TGI (MOLT-4 leukemia): > 100 µM
- GI50 (KM12 colon): 40 µM
- TGI (KM12 colon): > 100 µM
